Patent publication US20080075784A1, “Taste Making Formulation Comprising The Drug In A Dissolution-Retarded Form And/Or Cyclodextrin In A Dissolution-Enhanced Form” (Pfizer Inc., priority 2004, published 2008)

Assay: β-cyclodextrin dissolution rate in deionized water by refractive index
Assay type: physicochemical
Details: for β-Cyclodextrin Dissolved (%): 350 mg in 50 mL deionized water; for amount of dissolved cyclodextrin at one minute relative to the 156 μm cyclodextrin: one minute following administration
Method: In this example, the amount of dissolved cyclodextrin provided by several different β-cyclodextrin samples with varying ranges of particle size was determined. Samples of β-cyclodextrin with average particle sizes ranging from 116 μm to 249 μm were obtained from Roquette America of Keokuk, Iowa. In addition, a β-cyclodextrin sample with an average particle size range of about 57 μm was prepared by first dissolving the 249-μm commercially available sample in water and then lyophilizing the solution to form a fine powder. Volume weighted mean particle diameter in microns for each β-cyclodextrin sample was determined using a Horiba particle sizer.
The dissolution rates of these samples were determined as follows. A 350 mg sample of β-cyclodextrin of a given particle size was placed into 50 mL of deionized water, and the refractive index was measured at the time points noted in Table 2. Refractive index measurements were compared to a calibration curve of standards with known concentration, and the concentration of dissolved β-cyclodextrin versus time was determined.

| Structure (SMILES) | β-Cyclodextrin Dissolved (%) (time 0 min) | β-Cyclodextrin Dissolved (%) (time 1 min) | β-Cyclodextrin Dissolved (%) (time 2 min) | β-Cyclodextrin Dissolved (%) (time 3 min) | β-Cyclodextrin Dissolved (%) (time 4 min) | β-Cyclodextrin Dissolved (%) (time 5 min) | amount of dissolved cyclodextrin at one minute relative to the 156 μm cyclodextrin | amount of dissolved cyclodextrin provided by crystalline cyclodextrin (one minute after administration) | cyclodextrin dissolved after one minute (one minute, value taken from Table 3) |
| --- | --- | --- | --- | --- | --- | --- | --- | --- | --- |
| OC[C@H]1O[C@@H]2O[C@H]3[C@H](O)[C@@H](O)[C@@H](O[C@H]4[C@H](O)[C@@H](O)[C@@H](O[C@H]5[C@H](O)[C@@H](O)[C@@H](O[C@H]6[C@H](O)[C@@H](O)[C@@H](O[C@H]7[C@H](O)[C@@H](O)[C@@H](O[C@H]8[C@H](O)[C@@H](O)[C@@H](O[C@H]1[C@H](O)[C@H]2O)O[C@@H]8CO)O[C@@H]7CO)O[C@@H]6CO)O[C@@H]5CO)O[C@@H]4CO)O[C@@H]3CO [183 μm, β-cyclodextrin] | 0% | 45% | 52% | 64% | 64% | 71% | – | – | – |
| OC[C@H]1O[C@@H]2O[C@H]3[C@H](O)[C@@H](O)[C@@H](O[C@H]4[C@H](O)[C@@H](O)[C@@H](O[C@H]5[C@H](O)[C@@H](O)[C@@H](O[C@H]6[C@H](O)[C@@H](O)[C@@H](O[C@H]7[C@H](O)[C@@H](O)[C@@H](O[C@H]8[C@H](O)[C@@H](O)[C@@H](O[C@H]1[C@H](O)[C@H]2O)O[C@@H]8CO)O[C@@H]7CO)O[C@@H]6CO)O[C@@H]5CO)O[C@@H]4CO)O[C@@H]3CO [116 μm, β-cyclodextrin] | 0% | 58% | 76% | 84% | 88% | – | about 1.4 fold | – | – |
| OC[C@H]1O[C@@H]2O[C@H]3[C@H](O)[C@@H](O)[C@@H](O[C@H]4[C@H](O)[C@@H](O)[C@@H](O[C@H]5[C@H](O)[C@@H](O)[C@@H](O[C@H]6[C@H](O)[C@@H](O)[C@@H](O[C@H]7[C@H](O)[C@@H](O)[C@@H](O[C@H]8[C@H](O)[C@@H](O)[C@@H](O[C@H]1[C@H](O)[C@H]2O)O[C@@H]8CO)O[C@@H]7CO)O[C@@H]6CO)O[C@@H]5CO)O[C@@H]4CO)O[C@@H]3CO [156 μm, β-cyclodextrin] | 0% | 41% | 81% | 96% | 92% | 95% | – | about 41% | – |

Continued, values first:

| β-Cyclodextrin Dissolved (%) (time 0 min) | β-Cyclodextrin Dissolved (%) (time 1 min) | β-Cyclodextrin Dissolved (%) (time 2 min) | β-Cyclodextrin Dissolved (%) (time 3 min) | β-Cyclodextrin Dissolved (%) (time 4 min) | β-Cyclodextrin Dissolved (%) (time 5 min) | amount of dissolved cyclodextrin at one minute relative to the 156 μm cyclodextrin | amount of dissolved cyclodextrin provided by crystalline cyclodextrin (one minute after administration) | cyclodextrin dissolved after one minute (one minute, value taken from Table 3) | Structure (SMILES) |
| --- | --- | --- | --- | --- | --- | --- | --- | --- | --- |
| 0% | 20% | 26% | 42% | 54% | 67% | – | – | 20 wt % | OC[C@H]1O[C@@H]2O[C@H]3[C@H](O)[C@@H](O)[C@@H](O[C@H]4[C@H](O)[C@@H](O)[C@@H](O[C@H]5[C@H](O)[C@@H](O)[C@@H](O[C@H]6[C@H](O)[C@@H](O)[C@@H](O[C@H]7[C@H](O)[C@@H](O)[C@@H](O[C@H]8[C@H](O)[C@@H](O)[C@@H](O[C@H]1[C@H](O)[C@H]2O)O[C@@H]8CO)O[C@@H]7CO)O[C@@H]6CO)O[C@@H]5CO)O[C@@H]4CO)O[C@@H]3CO [249 μm, β-cyclodextrin] |
| 0% | 102% | 102% | 97% | 99% | 100% | about 2.4 fold | – | – | OC[C@H]1O[C@@H]2O[C@H]3[C@H](O)[C@@H](O)[C@@H](O[C@H]4[C@H](O)[C@@H](O)[C@@H](O[C@H]5[C@H](O)[C@@H](O)[C@@H](O[C@H]6[C@H](O)[C@@H](O)[C@@H](O[C@H]7[C@H](O)[C@@H](O)[C@@H](O[C@H]8[C@H](O)[C@@H](O)[C@@H](O[C@H]1[C@H](O)[C@H]2O)O[C@@H]8CO)O[C@@H]7CO)O[C@@H]6CO)O[C@@H]5CO)O[C@@H]4CO)O[C@@H]3CO [57 μm, β-cyclodextrin] |
